Results from patent publication US7566737B2 (Genfit, priority 2002, dated 2009).

Assays:
[1] = system: hApoE2 Knock-in transgenic mice; assay: Effects on triglycerides and cholesterol metabolism in vivo; parameters: species or system mouse
Procedure, shortened: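 hApoE2 knock-in mice (n=6/group, matched for body weight and plasma lipids) dosed once daily by intragastric gavage in carboxymethylcellulose for 7 or 8 days at indicated doses. Terminal blood on EDTA; total cholesterol and triglycerides measured colorimetrically.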

human PPARα = target: T1, human PPARα (Homo sapiens, UniProt Q07869); assay: PPARα/Gal4 transactivation system; type: cell-based
T1 construct: expressed in transfected cells; host or cells: RK13 or COS-7
T1 sequence (Q07869 239-466 limits assumed): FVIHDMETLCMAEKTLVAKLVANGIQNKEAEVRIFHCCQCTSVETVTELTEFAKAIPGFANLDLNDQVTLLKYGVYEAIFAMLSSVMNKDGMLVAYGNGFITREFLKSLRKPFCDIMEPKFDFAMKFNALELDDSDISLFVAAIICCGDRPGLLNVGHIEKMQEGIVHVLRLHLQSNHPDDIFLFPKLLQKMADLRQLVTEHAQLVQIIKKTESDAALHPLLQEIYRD
Procedure, shortened: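 Gal4-DBD fused to human PPAR ligand-binding (DEF) domain with Gal4-responsive luciferase reporter, in transfected RK13 or COS-7 cells. RK13: compounds at 10, 30, 100 μM or 1, 10, 100 μM for 24 h, dual-luciferase read, normalised to protein; COS-7: 24 h activation at 37° C in serum-free medium, luciferase read-out.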

LDL = assay: Protection against LDL oxidation by copper (conjugated diene formation); type: biochemical
Description: LDL oxidation is an important alteration and plays a predominant role in the establishment and development of atherosclerosis (Jurgens G et al., 1987). […] Unless otherwise indicated, the reagents were from Sigma (St Quentin, France). LDL were prepared according to the method described by (Havel R J et al., 1955). The solutions of test compounds were prepared at 10^−2 M concentration in bicarbonate buffer (pH 9) and diluted in PBS to obtain final concentrations ranging from 0.1 to 100 μM for a total ethanol concentration of […]. Prior to oxidation, EDTA was removed from the LDL preparation by dialysis. Oxidation then took place at 30° C. by addition of 100 μl of 16.6 μM CuSO4 solution to 160 μL of LDL (125 μg protein/ml) and 20 μl of a test compound solution. The formation of dienes, the species under observation, was followed by measuring optical density at 234 nm in the samples treated with the compounds but in the presence or absence of copper. Optical density at 234 nm was measured every 10 minutes for 8 hours in a thermostated spectrophotometer (Tecan Ultra 380). The compounds were considered to have antioxidant activity when they induced a longer lag phase and reduced the rate of oxidation and the amount of dienes formed in comparison with the control sample.

[2] = 200, 50, 12.5 and 3.125 mg/kg/day for 8 days

SMILES: CSc1ccc(C(=O)/C=C/c2cc(C)c(OC(C)(C)C(=O)O)c(C)c2)cc1 [Compound 29, 1-[4-methylthiophenyl]-3-[3,5-dimethyl-4-carboxydimethylmethyloxyphenyl]prop-2-en-1-one]
- plasma cholesterol ([1]; 50 mg/kg/day for 7 or 8 days, FIGS. 4-13, 4-15, 4-17, 4-19): decrease
- plasma triglycerides ([1]; 50 mg/kg/day for 7 or 8 days, FIGS. 4-14, 4-16, 4-18, 4-20): decrease
- cholesterol in lipoparticle subfraction (exclusion chromatography) [1, 2]: decrease
- plasma cholesterol level [1, 2]: dose-dependent decrease
- plasma triglycerides level [1, 2]: dose-dependent decrease
- triglycerides in lipoparticle subfraction (exclusion chromatography) [1, 2]: decrease
- induction factor (luminescent signal relative to untreated cells) (human PPARα; 1 μM): 28
- induction factor (luminescent signal relative to untreated cells) (human PPARα; 10 μM): 25
- lag phase of conjugated diene formation (LDL; 10^−4M, FIG. 1-7, copper alone 82 minutes): 135 min

SMILES: Cc1cc(/C=C/C(=O)c2ccc(Br)cc2)cc(C)c1OC(C)(C)C(=O)O [Compound 41, 1-[4-bromophenyl]-3-[3,5-dimethyl-4-carboxydimethylmethyloxyphenyl]prop-2-en-1-one]
- cholesterol in lipoparticle subfraction (exclusion chromatography) ([1]; 50 mg/kg/day for 8 days): decrease
- plasma cholesterol ([1]; 50 mg/kg/day for 8 days): decrease
- plasma triglycerides ([1]; 50 mg/kg/day for 8 days): decrease
- triglycerides in lipoparticle subfraction (exclusion chromatography) ([1]; 50 mg/kg/day for 8 days): decrease
- maximum induction factor (human PPARα; at the 10 or 1 μm concentrations): 34
- lag phase of conjugated diene formation (LDL; 10^−4M, FIG. 1-12, copper alone 120 minutes): 411 min
- rate of conjugated diene formation (LDL; 10^−4M, FIG. 1-13, copper alone 1.8): 0.54 nmol/min/mg of LDL
- maximum amount of conjugated dienes formed (LDL; FIG. 1-14, copper alone 372): 71 nmol per mg of LDL
